Data from publication PMC10281575, “PfCRT mutations conferring piperaquine resistance in falciparum malaria shape the kinetics of quinoline drug binding and transport” (PLOS Pathogens, 2023).
Values joined by “and” are separate entries in the source; they are usually repeats but may differ in a detail not shown here. Identical values can stand only once.

Target: T1, PfCRT^Dd2 (Plasmodium falciparum, UniProt Q8IBZ9, A220S/I356T/K76T/M74I/N326S/N75E/Q271E/R371I)
T1 sequence (Q8IBZ9 1-424 M74I/N75E/K76T/A220S/Q271E/N326S/I356T/R371I): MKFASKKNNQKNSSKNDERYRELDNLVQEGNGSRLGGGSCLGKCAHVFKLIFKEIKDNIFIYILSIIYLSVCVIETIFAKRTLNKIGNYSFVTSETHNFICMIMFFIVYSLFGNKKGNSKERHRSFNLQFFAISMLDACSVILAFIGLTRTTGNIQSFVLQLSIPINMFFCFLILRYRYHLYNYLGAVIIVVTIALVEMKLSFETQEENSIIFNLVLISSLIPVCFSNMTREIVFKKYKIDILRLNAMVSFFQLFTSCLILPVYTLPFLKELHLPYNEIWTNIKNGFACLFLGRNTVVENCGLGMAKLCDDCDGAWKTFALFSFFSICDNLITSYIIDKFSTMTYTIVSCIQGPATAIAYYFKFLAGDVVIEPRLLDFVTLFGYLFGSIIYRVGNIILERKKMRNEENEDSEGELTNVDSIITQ
Experiment: Competition kinetics of drug transport (radiolabeled substrate plus cold inhibitor), PfCRT^Dd2-expressing oocytes
Format: cell-based
Set-up: expressed in transfected cells; host or cells: Xenopus laevis oocytes injected with in vitro transcribed RNA (pSP64T)
Conditions: single replicates
Protocol: The experimental procedure and the data analysis were as described above.
The difference between the two models lies in the value of α, a parameter describing how much the affinity for the substrate changes when the inhibitor is already bound, and vice versa. […] The resulting Vmax,app values and the Vmax,app/KM,app ratios were plotted as a function of the inhibitor concentration (Fig 5A).
Drug transport assays were performed as previously described. Briefly, measurements of radiolabeled drug uptake were made over 1 h, unless otherwise specified. […] Where specified, one or more unlabeled drugs were also present at the indicated concentrations. […] The uptake assays were terminated by removing the oocytes from the reaction medium and washing them three times with 2 mL of ice-cold ND96 buffer. Each oocyte was transferred to a separate scintillation vial and lysed by the addition of 200 μL of a 5% SDS solution. The radioactivity in the sample was measured using a liquid scintillation analyser Tri-Carb 4910 TR (PerkinElmer). Water-injected oocytes were analyzed in parallel as a negative control. The buffer from each condition was measured in duplicate in parallel to each experiment to transform counts per minute into pmol of drug. Drug uptake attributable to PfCRT was determined by subtracting the background uptake from water-injected oocytes from that of PfCRT-expressing oocytes. In all cases, at least three independent experiments were performed on oocytes from different frogs, and for each condition in an experiment, measurements were made from 10 oocytes per treatment.
The following equations were adopted from Segel (1993), and the reader is referred to that text for the assumptions made in the author’s approach in the derivation of each equation [31]. The concentration of substrate is denoted as [S1] and the concentration of the inhibiting substrate is denoted as [S2]. KS1 and KS2 are the dissociation constants for the respective substrate-protein complexes.
Analyses of the kinetic data were performed using SigmaPlot version 13.0 and Python. The drug competition models were globally fit to the kinetic data using the least-squares method and ranked according to their corrected Akaike information criterion difference (ΔAICC) and their Akaike weight, using Python. The two top-ranked models were compared using an F-test.
This factor reflects how much the affinity of the transporter for one drug changes when the other drug is already bound in the protein cavity. In the former model, α > 0 and α ≠ 1. In the latter model, it could be thought of as if α = 1. Because of this, discriminating between the two models also means determining the value of α. In Mixed-type (Partial) inhibition, the apparent maximal velocity (Vmax,app) is given by Eq 22, Vmax,app=Vmax(1+β[S2]/αKS2)/(1+[S2]/αKS2) (Eq 22)
Vmax,app is the maximal rate of substrate transport at a certain inhibitor concentration. The half-maximal inhibitory concentration is given by the term in the denominator different from [S2], which in this case is αKS2. This means that by plotting Vmax,app as a function of [S2], the value of αKS2 can be derived after fitting the curve to Eq 23.
The half-maximal inhibitory concentration derived from this hyperbolic equation is equal to KS2. By plotting Vmax,app/KM,app as a function of [S2], one can derive KS2 after fitting the curve to Eq 25. The value of α can then be calculated dividing αKS2 by KS2.

CCN(CC)CCCC(C)Nc1ccnc2cc(Cl)ccc12 (stereo not drawn) [CQ, chloroquine]
PfCRTDd2-mediated CQ transport 10 µM CQ (0 µM PPQ): 0.87 pmol oocyte-1 h-1 and 1.33 pmol oocyte-1 h-1 and 1.00 pmol oocyte-1 h-1 and 0.95 pmol oocyte-1 h-1
PfCRTDd2-mediated CQ transport 10 µM CQ (50 µM PPQ): 1.41 pmol oocyte-1 h-1 and 1.10 pmol oocyte-1 h-1 and 0.61 pmol oocyte-1 h-1
PfCRTDd2-mediated CQ transport 10 µM CQ (125 µM PPQ): 0.68 pmol oocyte-1 h-1 and 1.41 pmol oocyte-1 h-1 and 1.40 pmol oocyte-1 h-1
PfCRTDd2-mediated CQ transport 10 µM CQ (200 µM PPQ): 0.89 pmol oocyte-1 h-1 and 0.30 pmol oocyte-1 h-1 and 1.02 pmol oocyte-1 h-1
PfCRTDd2-mediated CQ transport 10 µM CQ (350 µM PPQ): 1.16 pmol oocyte-1 h-1 and 0.24 pmol oocyte-1 h-1 and 0.95 pmol oocyte-1 h-1
PfCRTDd2-mediated CQ transport 10 µM CQ (500 µM PPQ): 0.43 pmol oocyte-1 h-1 and 1.04 pmol oocyte-1 h-1 and 0.36 pmol oocyte-1 h-1
PfCRTDd2-mediated CQ transport 50 µM CQ (0 µM PPQ): 3.90 pmol oocyte-1 h-1 and 4.91 pmol oocyte-1 h-1 and 4.76 pmol oocyte-1 h-1 and 7.49 pmol oocyte-1 h-1 and 10.46 pmol oocyte-1 h-1 and 5.04 pmol oocyte-1 h-1 and 3.98 pmol oocyte-1 h-1
PfCRTDd2-mediated CQ transport 50 µM CQ (50 µM PPQ): 6.48 pmol oocyte-1 h-1 and 5.07 pmol oocyte-1 h-1 and 3.08 pmol oocyte-1 h-1 and 4.12 pmol oocyte-1 h-1
PfCRTDd2-mediated CQ transport 50 µM CQ (125 µM PPQ): 4.96 pmol oocyte-1 h-1 and 2.54 pmol oocyte-1 h-1 and 3.07 pmol oocyte-1 h-1
PfCRTDd2-mediated CQ transport 50 µM CQ (200 µM PPQ): 3.46 pmol oocyte-1 h-1 and 2.63 pmol oocyte-1 h-1 and 3.11 pmol oocyte-1 h-1
PfCRTDd2-mediated CQ transport 50 µM CQ (350 µM PPQ): 2.38 pmol oocyte-1 h-1 and 2.66 pmol oocyte-1 h-1 and 3.48 pmol oocyte-1 h-1
PfCRTDd2-mediated CQ transport 50 µM CQ (500 µM PPQ): 2.32 pmol oocyte-1 h-1 and 2.15 pmol oocyte-1 h-1 and 3.29 pmol oocyte-1 h-1
PfCRTDd2-mediated CQ transport 100 µM CQ (0 µM PPQ): 8.35 pmol oocyte-1 h-1 and 7.99 pmol oocyte-1 h-1 and 8.53 pmol oocyte-1 h-1
PfCRTDd2-mediated CQ transport 100 µM CQ (50 µM PPQ): 9.49 pmol oocyte-1 h-1 and 7.68 pmol oocyte-1 h-1 and 5.55 pmol oocyte-1 h-1
PfCRTDd2-mediated CQ transport 100 µM CQ (125 µM PPQ): 5.95 pmol oocyte-1 h-1 and 8.32 pmol oocyte-1 h-1 and 6.55 pmol oocyte-1 h-1
PfCRTDd2-mediated CQ transport 100 µM CQ (200 µM PPQ): 5.59 pmol oocyte-1 h-1 and 6.01 pmol oocyte-1 h-1 and 5.66 pmol oocyte-1 h-1
PfCRTDd2-mediated CQ transport 100 µM CQ (350 µM PPQ): 5.36 pmol oocyte-1 h-1 and 3.63 pmol oocyte-1 h-1 and 6.93 pmol oocyte-1 h-1
PfCRTDd2-mediated CQ transport 100 µM CQ (500 µM PPQ): 4.92 pmol oocyte-1 h-1 and 5.26 pmol oocyte-1 h-1 and 4.17 pmol oocyte-1 h-1
PfCRTDd2-mediated CQ transport 200 µM CQ (0 µM PPQ): 17.86 pmol oocyte-1 h-1 and 12.77 pmol oocyte-1 h-1 and 15.13 pmol oocyte-1 h-1
PfCRTDd2-mediated CQ transport 200 µM CQ (50 µM PPQ): 13.29 pmol oocyte-1 h-1 and 13.73 pmol oocyte-1 h-1 and 11.63 pmol oocyte-1 h-1
PfCRTDd2-mediated CQ transport 200 µM CQ (125 µM PPQ): 10.25 pmol oocyte-1 h-1 and 14.35 pmol oocyte-1 h-1 and 10.52 pmol oocyte-1 h-1
PfCRTDd2-mediated CQ transport 200 µM CQ (200 µM PPQ): 10.68 pmol oocyte-1 h-1 and 10.09 pmol oocyte-1 h-1 and 9.74 pmol oocyte-1 h-1
PfCRTDd2-mediated CQ transport 200 µM CQ (350 µM PPQ): 11.39 pmol oocyte-1 h-1 and 6.27 pmol oocyte-1 h-1 and 10.49 pmol oocyte-1 h-1
PfCRTDd2-mediated CQ transport 200 µM CQ (500 µM PPQ): 7.85 pmol oocyte-1 h-1 and 9.03 pmol oocyte-1 h-1 and 9.31 pmol oocyte-1 h-1
PfCRTDd2-mediated CQ transport 300 µM CQ (0 µM PPQ): 20.89 pmol oocyte-1 h-1 and 20.25 pmol oocyte-1 h-1 and 8.92 pmol oocyte-1 h-1 and 15.94 pmol oocyte-1 h-1 and 19.02 pmol oocyte-1 h-1
PfCRTDd2-mediated CQ transport 300 µM CQ (50 µM PPQ): 15.04 pmol oocyte-1 h-1 and 14.02 pmol oocyte-1 h-1 and 15.34 pmol oocyte-1 h-1
PfCRTDd2-mediated CQ transport 300 µM CQ (125 µM PPQ): 15.92 pmol oocyte-1 h-1 and 14.01 pmol oocyte-1 h-1 and 11.66 pmol oocyte-1 h-1
PfCRTDd2-mediated CQ transport 300 µM CQ (200 µM PPQ): 11.11 pmol oocyte-1 h-1 and 12.97 pmol oocyte-1 h-1 and 12.36 pmol oocyte-1 h-1
PfCRTDd2-mediated CQ transport 300 µM CQ (350 µM PPQ): 11.84 pmol oocyte-1 h-1 and 11.95 pmol oocyte-1 h-1 and 8.89 pmol oocyte-1 h-1
PfCRTDd2-mediated CQ transport 300 µM CQ (500 µM PPQ): 11.31 pmol oocyte-1 h-1 and 9.89 pmol oocyte-1 h-1 and 9.29 pmol oocyte-1 h-1
PfCRTDd2-mediated CQ transport 400 µM CQ (0 µM PPQ): 20.79 pmol oocyte-1 h-1 and 22.58 pmol oocyte-1 h-1 and 19.58 pmol oocyte-1 h-1 and 16.43 pmol oocyte-1 h-1
PfCRTDd2-mediated CQ transport 400 µM CQ (50 µM PPQ): 18.68 pmol oocyte-1 h-1 and 19.12 pmol oocyte-1 h-1 and 16.44 pmol oocyte-1 h-1
PfCRTDd2-mediated CQ transport 400 µM CQ (125 µM PPQ): 13.83 pmol oocyte-1 h-1 and 18.03 pmol oocyte-1 h-1 and 15.59 pmol oocyte-1 h-1
PfCRTDd2-mediated CQ transport 400 µM CQ (200 µM PPQ): 14.22 pmol oocyte-1 h-1 and 13.47 pmol oocyte-1 h-1 and 13.35 pmol oocyte-1 h-1
PfCRTDd2-mediated CQ transport 400 µM CQ (350 µM PPQ): 14.38 pmol oocyte-1 h-1 and 9.22 pmol oocyte-1 h-1
PfCRTDd2-mediated CQ transport 400 µM CQ (500 µM PPQ): 12.77 pmol oocyte-1 h-1 and 10.16 pmol oocyte-1 h-1 and 8.34 pmol oocyte-1 h-1
